Source: patent publication US11447486B2, “2-amino-benzimidazole derivatives and their use as 5-lipoxygenase and/or prostaglandin E synthase inhibitors” (INSTITUT PASTEUR KOREA, priority 2014, dated 2022)
Read-outs that look alike come from different tables or passages of the source.

What was measured:
[1] = molecular target: T1, human 5-LOX (Homo sapiens, UniProt P09917); assay: 5-LOX enzyme activity, fluorescence method (5-HPETE, H2DCFDA); assay type: biochemical; details: read-out: 5-LO (IC50)
T1 construct: purchased Cayman 60402; host or cells: insect cells (lysate)
T1 sequence (P09917 1-674): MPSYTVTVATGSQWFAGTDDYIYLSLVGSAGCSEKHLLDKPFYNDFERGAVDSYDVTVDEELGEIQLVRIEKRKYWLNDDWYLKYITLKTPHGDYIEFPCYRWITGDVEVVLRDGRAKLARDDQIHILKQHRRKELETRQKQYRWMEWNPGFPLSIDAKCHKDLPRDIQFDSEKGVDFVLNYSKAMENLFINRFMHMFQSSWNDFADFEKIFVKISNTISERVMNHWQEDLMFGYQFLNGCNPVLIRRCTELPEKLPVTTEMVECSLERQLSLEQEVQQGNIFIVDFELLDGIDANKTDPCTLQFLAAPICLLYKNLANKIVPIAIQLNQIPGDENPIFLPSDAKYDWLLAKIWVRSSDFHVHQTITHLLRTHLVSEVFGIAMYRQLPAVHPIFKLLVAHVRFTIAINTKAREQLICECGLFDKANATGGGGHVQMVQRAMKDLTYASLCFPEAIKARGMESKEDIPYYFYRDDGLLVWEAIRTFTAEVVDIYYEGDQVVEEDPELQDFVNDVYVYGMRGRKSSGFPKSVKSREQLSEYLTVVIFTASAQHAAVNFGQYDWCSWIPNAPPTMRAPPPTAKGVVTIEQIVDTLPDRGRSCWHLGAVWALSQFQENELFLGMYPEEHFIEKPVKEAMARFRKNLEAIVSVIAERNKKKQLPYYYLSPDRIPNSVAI
Procedure, shortened: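 Fluorescence-based read-out, run entirely at room temperature. Enzyme mixture was exposed to a dose range of compound from 0.5 nM to 10 uM for 5 min before ATP and arachidonic acid were added to final levels of 100 uM and 3 uM.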

[2] = test system: Rat basophilic leukemia (RBL) cells; assay: LTB4 secretion assay in RBL (rat basophilic leukemia cells); assay type: cell-based
Procedure, shortened: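 LTB4 released into supernatant was measured by EIA after 10 min at 37 °C with arachidonic acid (2.5 uM final) and calcium ionophore A23187 (5 uM final). Before stimulation, cells plated 2×10^4/well overnight received compound doses (5 nM to 100 uM) for 15 min in 0.5% FBS medium.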

[3] = test system: Rat whole blood (RWB); assay: LTB4 secretion assay in RWB (rat whole blood); assay type: cell-based
Procedure, shortened: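 LTB4 release was measured by EIA in supernatants of pooled, sodium heparin rat blood (male Sprague Dawley, 6-9 weeks) diluted 1:1 with RPMI. Compounds (2.5 nM to 50 uM) were added 15 min before A23187 (10 uM final), with 10 min stimulation at 37 °C before ice-cold PBS quench.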

SMILES | IC50 [1] [µM] | EC50 ([2]; Rattus norvegicus, RBL) [µM] | EC50 ([3]; Rattus norvegicus) [µM] | EC50 [2] [µM] | EC50 [3] [µM]
CCn1c(NCc2ccc(Oc3ncc(OC(F)(F)F)cn3)cc2)nc2ccc(Nc3cc(C(F)(F)F)n(C)n3)cc21 [Compound 545] | 1 to 10 | < 10 | < 10 | – | –
CCn1c(NCc2ccc(Oc3ncc(C(F)(F)F)cn3)cc2F)nc2ccc(NC3COC3)cc21 [Compound 542] | < 1 | < 10 | < 10 | – | –
Cn1ccc(Nc2ccc3nc(NCc4ccc(Oc5ncc(Cl)cn5)cc4)n(C)c3c2F)n1 [Compound 487] | < 1 | < 10 | < 10 | – | –
CCC(Nc1nc2ccc(Nc3cc(C)[nH]n3)cc2n1C)c1ccc(Oc2ncc(C(F)(F)F)cn2)cc1 (stereo not drawn) [Compound 534] | < 1 | < 10 | < 10 | – | –
CCn1c(NCc2ccc(Oc3ncc(C(F)(F)F)cn3)cc2)nc2ccc(Nc3n[nH]c(C)c3Cl)cc21 [Compound 516] | > 10 | – | – | < 10 | < 10
Cc1cc(Nc2ccc3nc(NCc4ccc(Oc5ncc(C(F)(F)F)cn5)cc4)n(C)c3c2)n[nH]1 [Compound 479] | < 1 | < 10 | < 10 | – | –
CCn1c(NCc2ccc(Oc3ncc(C(F)(F)F)cn3)cc2)nc2ccc(Nc3cc(C(C)(C)C)[nH]n3)cc21 [Compound 507] | < 1 | < 10 | 10 to 20 | – | –
Nc1nc2cc(NCCOc3ccc(OC(F)(F)F)cc3)ccc2[nH]1 [Compound 75] | < 1 | 10 to 20 | > 20 | – | –
CCC(Nc1nc2ccc(NC3COC3)cc2n1C)c1ccc(Oc2ncc(C(F)(F)F)cn2)cc1 (stereo not drawn) [Compound 547] | < 1 | < 10 | < 10 | – | –
CCC(Nc1nc2ccc(Nc3cc(C)[nH]n3)cc2n1C)c1ccc(Oc2ncc(Cl)cn2)cc1 (stereo not drawn) [Compound 477] | < 1 | < 10 | < 10 | – | –
CCn1c(NCc2ccc(Oc3ncc(C(F)(F)F)cn3)cc2F)nc2ccc(Nc3cc(C(F)(F)F)n(C)n3)cc21 [Compound 527] | > 10 | < 10 | < 10 | – | –
CN(C)c1nc2cc(N3CCC(Oc4ccncc4)C3)ccc2[nH]1 (stereo not drawn) [Compound 202] | < 1 | < 10 | > 20 | – | –
Cn1nc(C(F)(F)F)cc1Nc1ccc2nc(NCc3ccc(Oc4ncc(Cl)cn4)cc3)n(C)c2c1 [Compound 526] | 1 to 10 | < 10 | < 10 | – | –
Cc1cc(Oc2ncc(Cl)cn2)cc(C)c1CNc1nc2ccc(NC3COC3)cc2n1C [Compound 417] | < 1 | > 20 | > 20 | – | –
Cn1c(NCc2ccc(Oc3ccc(C(F)(F)F)cn3)cc2)nc2c(F)cc(NC3COC3)cc21 [Compound 552] | < 1 | < 10 | 10 to 20 | – | –
CC(Nc1ccc2[nH]c(N(C)C)nc2c1)c1ccc(Oc2ccc(OC(F)(F)F)cc2)cc1 (stereo not drawn) [Compound 127] | < 1 | < 10 | > 20 | – | –
Cn1c(NCc2ccc(Oc3ccc(C(F)(F)F)cn3)cc2F)nc2ccc(NC3COC3)cc21 [Compound 546] | < 1 | < 10 | < 10 | – | –
CCn1c(NCc2ccc(Oc3ncc(C(F)(F)F)cn3)cc2)nc2ccc(Nc3cc(C)[nH]n3)cc21 [Compound 531] | < 1 | < 10 | < 10 | – | –
Nc1ccc2[nH]c(NCCc3ccc(Cl)cc3Cl)nc2c1 [Compound 73] | < 1 | < 10 | 10 to 20 | – | –
Cc1cc(Nc2ccc3nc(NCc4ccc(Nc5ncc(Cl)cn5)cc4)n(C)c3c2)n[nH]1 [Compound 486] | < 1 | < 10 | < 10 | – | –

Other lines, results leading:

IC50 [1] [µM] | EC50 ([2]; Rattus norvegicus, RBL) [µM] | EC50 ([3]; Rattus norvegicus) [µM] | EC50 [2] [µM] | EC50 [3] [µM] | SMILES
< 1 | < 10 | 10 to 20 | – | – | Nc1ccc2nc(NC3CCCC3)n(Cc3ccc(Oc4ccc(Cl)cc4)cc3)c2c1 [Compound 161]
< 1 | > 20 | < 10 | – | – | Cc1ccc(Oc2ccc(CNc3nc4ccc(N)cc4n3C)cc2)nn1 [Compound 311]
< 1 | < 10 | < 10 | – | – | CC(Nc1nc2cc(N)ccc2[nH]1)c1ccc(Oc2ccc(Cl)cc2)cc1 (stereo not drawn) [Compound 110]
< 1 | < 10 | > 20 | – | – | CN(C)c1nc2cc(NCc3ccc(Oc4ccc(OC(F)(F)F)cc4)cc3)ccc2[nH]1 [Compound 126]
< 1 | < 10 | < 10 | – | – | Cn1c(NCc2ccc(Oc3ncc(OC(F)(F)F)cn3)cc2)nc2ccc(NC3COC3)cc21 [Compound 412]
1 to 10 | < 10 | < 10 | – | – | Cn1c(NCc2ccc(Oc3ncc(Cl)cn3)cc2)nc2ccc(Nc3nc(C(F)(F)F)co3)cc21 [Compound 493]
< 1 | < 10 | < 10 | – | – | Cn1c(NCc2ccc(Oc3ncc(Cl)cn3)cc2)nc2ccc(NC(C)(C)C(N)=O)cc21 [Compound 358]
< 1 | 10 to 20 | > 20 | – | – | Cn1c(NCc2ccc(OCc3ccc(Cl)cn3)cc2)nc2ccc(NC3COC3)cc21 [Compound 315]
< 1 | < 10 | < 10 | – | – | Cc1cc(Nc2ccc3nc(NCc4ccc(Oc5ccc(C(F)(F)F)cn5)cc4)n(C)c3c2)n[nH]1 [Compound 495]
< 1 | < 10 | < 10 | – | – | CN(C)c1nc2cc(NCc3ccc(Oc4ccc(Cl)cc4)cc3)ccc2[nH]1 [Compound 123]
< 1 | < 10 | < 10 | – | – | Cn1c(NCCOc2ccc(OC(F)(F)F)cc2)nc2ccc(N)cc21 [Compound 52]
< 1 | 10 to 20 | 10 to 20 | – | – | Cn1c(NCc2ccc(Oc3ccncn3)cc2)nc2ccc(NC3COC3)cc21 [Compound 371]
< 1 | < 10 | > 20 | – | – | Cn1c(NCc2ccc(COc3ccc(Cl)cn3)cc2)nc2ccc(NC3COC3)cc21 [Compound 305]
< 1 | 10 to 20 | < 10 | – | – | Cn1c(NCc2ccc(Oc3ncc(Cl)cn3)cc2)nc2c(F)cc(NC3COC3)cc21 [Compound 554]
< 1 | < 10 | < 10 | – | – | Cn1c(NCc2ccc(Oc3ncc(C(F)(F)F)cn3)cc2)nc2ccc(NC3COC3)cc21 [Compound 374]
1 to 10 | < 10 | > 20 | – | – | Nc1ccc2c(c1)nc(N1CCCC1)n2CCOc1ccc(OC(F)(F)F)cc1 [Compound 55]
< 1 | < 10 | < 10 | – | – | Cn1c(NCc2ccc(Oc3cccnc3)cc2)nc2ccc(NC3COC3)cc21 [Compound 227]
< 1 | < 10 | 10 to 20 | – | – | Nc1ccc2[nH]c(NCc3ccc(Oc4ccc(Cl)cc4Cl)cc3)nc2c1 [Compound 135]
